The target in the assay is T1, 5HT6-human recombinant receptor (Homo sapiens, UniProt P50406).
T1 construct: purchased Receptor Biology; host or cells: HEK-293 cell membranes
Nature of the assay: Binding to serotonin receptor 5-HT6 ([3H]-LSD displacement). The note with it: radioligand [3H]-LSD 2.7 nM; for inhibition at 0.01 µM / inhibition at 0.1 µM: 1 h; for Ki: membranes of HEK-293 cells expressing the receptor, 60 min, 37° C. As to the method: Cell membranes of HEK-293 cells expressing the 5HT6-human recombinant receptor were supplied by Receptor Biology. In said membranes the receptor concentration is 2.18 pmol/mg protein and the protein concentration is 9.17 mg/ml. The experimental protocol follows the method of B. L. Roth et al. [B. L. Roth, S. C. Craigo, M. S. Choudhary, A. Uluer, F. J. Monsma, Y. Shen, H. Y. Meltzer, D. R. Sibley: Binding of Typical and Atypical Antipsychotic Agents to 5-Hydroxytryptamine-6 and Hydroxytryptamine-7 Receptors. The Journal of Pharmacology and Experimental Therapeutics, 1994, 268, 1403] with the following slight changes. The respective part of the literature description is hereby incorporated by reference and forms part of the disclosure.
The commercial membrane is diluted (1:40 dilution) with the binding buffer: 50 mM Tris-HCl, 10 mM MgCl2, 0.5 mM EDTA (pH 7.4). The radioligand used is [^3H]-LSD at a concentration of 2.7 nM with a final volume of 200 μl. Incubation is initiated by adding 100 μl of membrane suspension, (≈22.9 μg membrane protein), and is prolonged for 60 minutes at a temperature of 37° C. The incubation is ended by fast filtration in a Brandel Cell Harvester through fiber glass filters made by Schleicher & Schuell GF 3362 pretreated with a solution of polyethylenimine at 0.5%. The filters are washed three times with three milliliters of buffer Tris-HCl 50 mM pH 7.4. The filters are transferred to flasks and 5 ml of Ecoscint H liquid scintillation cocktail are added to each flask. The flasks are allowed to reach equilibrium for several hours before counting with a Wallac Winspectral 1414 scintillation counter. Non-specific binding is determined in the presence of 100 μM of serotonin. Tests were made in triplicate. The inhibition constants (Ki, nM) were calculated by non-linear regression analysis using the program EBDA/LIGAND described in Munson and Rodbard, Analytical Biochemistry, 1980, 107, 220, the respective part of which is hereby incorporated by reference and forms part of the disclosure.

Structures can show the parent of a compound that is named as a salt.

T1 sequence (P50406 whole entry): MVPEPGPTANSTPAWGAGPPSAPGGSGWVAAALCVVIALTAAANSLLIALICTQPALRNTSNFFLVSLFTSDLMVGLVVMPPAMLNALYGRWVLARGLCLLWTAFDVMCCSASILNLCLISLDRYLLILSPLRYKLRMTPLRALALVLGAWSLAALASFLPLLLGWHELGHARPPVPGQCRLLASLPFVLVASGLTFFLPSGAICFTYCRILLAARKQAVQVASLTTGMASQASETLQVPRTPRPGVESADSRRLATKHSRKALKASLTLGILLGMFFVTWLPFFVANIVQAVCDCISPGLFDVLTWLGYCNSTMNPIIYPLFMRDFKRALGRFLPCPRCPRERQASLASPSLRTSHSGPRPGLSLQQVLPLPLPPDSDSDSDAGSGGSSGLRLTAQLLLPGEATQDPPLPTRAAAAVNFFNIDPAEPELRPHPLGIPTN

As for `CC(C)(C)OC(=O)N1CCc2cc(NS(=O)(=O)c3cccc4ccccc34)ccc2C1` [Example 13, 6-(Naphthalene-1-sulfonylamino)-3,4-dihydro-1H-isoquinoline-2-carboxylic acid tert-butyl ester], the Ki was determined as 1.3 nM. The inhibition at 0.01 µM (compound at 10 nM) amounted to 30.7%. The inhibition at 0.1 µM (compound at 100 nM) was 28.8%.

As for `Cc1c(S(=O)(=O)Nc2ccc3c(c2)CNCC3)sc2ccc(Cl)cc12` [Example 60, 5-Chloro-3-methyl-benzo[b]thiophene-2-sulfonic acid (1,2,3,4-tetrahydro-isoquinolin-7-yl)-amide hydrochloride], the inhibition constant (Ki) is 49.4 ± 8.2 nM. For the same compound, the inhibition at 0.01 µM (compound at 10 nM) turned out to be 44.8%. In addition, the inhibition at 0.1 µM (compound at 100 nM) is 65.1%.

Turning to `Cc1c(S(=O)(=O)Nc2ccc3c(c2)CCN(C(=O)OC(C)(C)C)C3)sc2ccc(Cl)cc12` [Example 14, 6-(5-Chloro-3-methyl-benzo[b]thiophene-2-sulfonylamino)-3,4-dihydro-1H-isoquinoline-2-carboxylic acid tert-butyl ester], the inhibition at 0.01 µM (compound at 10 nM) was -7.3%. In addition, the inhibition at 0.1 µM (compound at 100 nM) is -3%.

As to `Cc1c(S(=O)(=O)Nc2ccc3c(c2)CCN(C)C3)sc2ccc(Cl)cc12` [Example 5, 5-Chloro-3-methyl-benzo[b]thiophene-2-sulfonic acid (2-methyl-1,2,3,4-tetrahydro-isoquinolin-6-yl)-amide hydrochloride], the Ki was determined as 79.8 nM. Under “compound at 10 nM”, the inhibition at 0.01 µM came out at 25.9%. The inhibition at 0.1 µM (compound at 100 nM) amounted to 76.3%.

Turning to `O=S(=O)(Nc1ccc2c(c1)CCNC2)c1cccc2c(Cl)cccc12` [Example 42, 5-Chloro-naphthalene-1-sulfonic acid (1,2,3,4-tetrahydro-isoquinolin-6-yl)-amide hydrochloride], the Ki was 9.3 ± 2.2 nM. Further, the inhibition at 0.01 µM (compound at 10 nM) is 78.2%. For the same compound, the inhibition at 0.1 µM (compound at 100 nM) worked out at 88.9%.

As to `Cc1ccc(S(=O)(=O)Nc2ccc3c(c2)CN(C)CC3)c2ccccc12` [Example 56, 4-Methyl-naphthalene-1-sulfonic acid (2-methyl-1,2,3,4-tetrahydro-isoqui-nolin-7-yl)-amide hydrochloride], the Ki is 10.3 nM. Under “compound at 10 nM”, the inhibition at 0.01 µM came out at 86.8%. Also, the inhibition at 0.1 µM (compound at 100 nM) turned out to be 92.8%.

For `CCc1ccc(OC)c(S(=O)(=O)Nc2ccc3c(c2)CNCC3)c1` [Example 86, 5-Ethyl-2-methoxy-N-(1,2,3,4-tetrahydro-isoquinolin-7-yl)-benzenesulfonamide hydrochloride], the Ki stood at 6.1 ± 0.7 nM. The inhibition at 0.01 µM (compound at 10 nM) amounted to 78.9%. In addition, the inhibition at 0.1 µM (compound at 100 nM) came to 88.4%.

As to `CN1CCc2cc(NS(=O)(=O)c3cccc4ccccc34)ccc2C1` [Example 3, Naphthalene-1-sulfonic acid (2-methyl-1,2,3,4-tetrahydro-isoquinolin-6-yl)-amide hydrochloride], the inhibition at 0.01 µM (compound at 10 nM) was determined as 3.9%. For the setting “compound at 100 nM”, the inhibition at 0.1 µM turned out to be 18.2%.

As to `O=S(=O)(Nc1ccc2c(c1)CNCC2)c1cccc2ccccc12` [Example 61, Naphthalene-1-sulfonic acid (1,2,3,4-tetrahydro-isoquinolin-7-yl)-amide hydrochloride], the Ki came to 3.2 ± 0.4 nM. In addition, the inhibition at 0.01 µM (compound at 10 nM) worked out at 78.6%. For the same compound, under “compound at 100 nM”, the inhibition at 0.1 µM worked out at 85.5%.

For the compound `O=S(=O)(Nc1ccc2c(c1)CNCC2)c1c(Cl)nc2sccn12` [Example 54, 6-Chloro-imidazo[2,1-b]thiazole-5-sulfonic acid (1,2,3,4-tetrahydro-iso-quinolin-7-yl)-amide hydrochloride], the Ki was found to be 10.7 ± 4.8 nM. In addition, the inhibition at 0.01 µM (compound at 10 nM) is 81%. Also, the inhibition at 0.1 µM (compound at 100 nM) was determined as 91.9%.

Regarding `CN1CCc2ccc(NS(=O)(=O)c3c(Cl)nc4sccn34)cc2C1` [Example 53, 6-Chloro-imidazo[2,1-b]thiazole-5-sulfonic acid (2-methyl-1,2,3,4-tetrahydro-isoquinolin-7-yl)-amide hydrochloride], the Ki worked out at 3.8 ± 1 nM. Further, the inhibition at 0.01 µM (compound at 10 nM) was 55.4%. Also, where the note is “compound at 100 nM”, the inhibition at 0.1 µM was found to be 82.8%.

Take `COc1ccc(C)cc1S(=O)(=O)Nc1ccc2c(c1)CCN(C(=O)OC(C)(C)C)C2` [Example 17, 6-(2-Methoxy-5-methyl-benzenesulfonylamino)-3,4-dihydro-1H-isoquinoline-2-carboxylic acid tert-butyl ester]: the inhibition at 0.01 µM (compound at 10 nM) was -1.3%. For the same compound, the inhibition at 0.1 µM (compound at 100 nM) was -2%.

For `O=S(=O)(Nc1ccc2c(c1)CCNC2)c1cc2ccccc2s1` [Example 24, Benzo[b]thiophene-2-sulfonic acid (1,2,3,4-tetrahydro-isoquinolin-6-yl)-amide hydrochloride], the Ki was determined as 12.6 ± 1.1 nM. Further, the inhibition at 0.01 µM (compound at 10 nM) was found to be 53.6%. The inhibition at 0.1 µM (compound at 100 nM) was found to be 86.8%.

Regarding `Cc1ccc2nsnc2c1S(=O)(=O)Nc1ccc2c(c1)CNCC2` [Example 76, 5-Methylbenzo[1,2,5] thiadiazole-4-sulfonic acid (1,2,3,4-tetrahydro-isoquinolin-7-yl)-amide hydrochloride], the Ki is 19.2 ± 2.4 nM. Also, the inhibition at 0.01 µM (compound at 10 nM) came to 73.1%. Under “compound at 100 nM”, the inhibition at 0.1 µM was 83.2%.

On to `O=S(=O)(Nc1ccc2c(c1)CCNC2)c1ccc2ccccc2c1` [Example 153, Naphthalene-2-sulfonic acid (1,2,3,4-tetrahydro-isoquinolin-6-yl)-amide], for which the Ki was 8.7 ± 0.4 nM. Besides, the “Binding % [10 nM]” value (compound at 10 nM) is 52.9%. The “Binding % [100 nM]” value (compound at 100 nM) is 88.2%.

Take `Cc1ccc(S(=O)(=O)Nc2ccc3c(c2)CCN(C)C3)c2ccccc12` [Example 7, 4-Methyl-naphthalene-1-sulfonic acid (2-methyl-1,2,3,4-tetrahydro-isoqui-nolin-6-yl)amide hydrochloride]: the Ki turned out to be 13.3 nM. Moreover, the inhibition at 0.01 µM (compound at 10 nM) came to 80.3%. Besides, the inhibition at 0.1 µM (compound at 100 nM) is 92.2%.

Regarding `Cc1ccc(S(=O)(=O)Nc2ccc3c(c2)CNCC3)c2ccccc12` [Example 55, 4-Methyl-naphthalene-1-sulfonic acid (1,2,3,4-tetrahydro-isoquinolin-7-yl)-amide hydrochloride], the Ki was 3.8 ± 1.2 nM. Further, for the setting “compound at 10 nM”, the inhibition at 0.01 µM was 82.3%. Where the note is “compound at 100 nM”, the inhibition at 0.1 µM stood at 84.9%.

`O=S(=O)(Nc1ccc2c(c1)CCNC2)c1cccc2ccccc12` [Example 1, Naphthalene-1-sulfonic acid (1,2,3,4-tetrahydroisoquinolin-6-yl)-amide hydrochloride]: the Ki amounted to 13.8 nM. Further, where the note is “compound at 10 nM”, the inhibition at 0.01 µM was 53.3%. Moreover, where the note is “compound at 100 nM”, the inhibition at 0.1 µM was determined as 74.8%.

In the case of `O=S(=O)(Nc1ccc2c(c1)CNCC2)c1cccc2nonc12` [Example 72, Benzo[1,2,5]oxadiazole-4-sulfonic acid (1,2,3,4-tetrahydro-isoquinolin-7-yl)-amide hydrochloride], the Ki amounted to 54.6 nM. Moreover, the inhibition at 0.01 µM (compound at 10 nM) worked out at 45.5%. Besides, the inhibition at 0.1 µM (compound at 100 nM) came out at 64.7%.

For `O=S(=O)(Nc1ccc2c(c1)CCNC2)c1ccc(F)c2ccccc12` [Example 30, 4-Fluoro-naphthalene-1-sulfonic acid (1,2,3,4-tetrahydro-isoquinolin-6-yl)-amide hydrochloride], the Ki was determined as 7.8 ± 0.1 nM. The inhibition at 0.01 µM (compound at 10 nM) was 63.2%. Also, the inhibition at 0.1 µM (compound at 100 nM) is 85.2%.
